From patent publication US10945992B1, “Dosage forms of rofecoxib and related methods” (Tremeau Pharmaceuticals, Inc., priority 2019, dated 2021)
Like-named read-outs stand apart in the source and are kept apart here.

Assay: TRM-201-PK-101 single-dose pharmacokinetic study, 25 mg, fasted healthy subjects
Assay type: in vivo, human
Details: for Cmax / AUC(0-inf) / AUC: human, plasma, oral
Protocol: A Single-Dose, Open-Label, Phase 1, Adaptive Pharmacokinetic Study of TRM-201 (Rofecoxib) 25 mg Administered to Healthy Subjects in a Fasting State, with Comparison to Historical Pharmacokinetic Parameters of Previously Marketed Rofecoxib and a Food-Effect Substudy (“TRM-201-PK-101” or “101 PK Study”)
This is a single-center, open-label, adaptive PK study of TRM-201 consisting of a MAIN study with a PILOT portion conducted under a fasted condition, and a two-period crossover, FOOD-EFFECT sub study under both fasted and fed conditions. The PILOT portion of the study (21 subjects) will include a single dose of TRM-201 in a single group to assess the PK of TRM-201 in healthy volunteers under fasted conditions. Following completion of the PILOT portion and the decision to move forward, an additional 16 subjects will be enrolled in the MAIN study and an additional 16 subjects will be enrolled in the FOOD-EFFECT sub study. The MAIN study will include a single dose of TRM-201 to assess the PK of TRM-201 in healthy volunteers under fasted conditions. The FOOD-EFFECT sub study is a single-dose, two-period crossover study. A single dose of TRM-201 will be given on Day 1 of each dosing period to assess the PK of TRM-201 in healthy volunteers under both fasted and fed conditions. Subjects will be randomized 1:1 into the two sequences fasted followed by fed, and fed followed by fasted.
After Check-In, subjects will fast overnight for at least 10 hours before study drug administration. While fasting, subjects will have nothing to eat and only water to drink. Water will be permitted as desired, except for the period between 1 hour before and 1 hour after study drug dosing (excepting as permitted for dosing). After the 2-hour PK blood sample, subjects will be allowed one 250-mL cup of clear apple juice. After the 4-hour PK blood sample, subjects will be served a light lunch. Following the light lunch, subjects should receive standardized meals according to the clinic's standard procedures that are scheduled at consistent times and at least 15 minutes before or 15 minutes after PK sampling time points. Blood will be withdrawn for PK analysis at predefined time points as defined in Table 8. The last time point will be 120 hours after dosing with study drug. After the 120-hour PK sample, the EOS procedures will be completed, and subjects will be discharged from the clinic.
This is an open-label PK study. Each subject is scheduled to receive a single 25-mg dose of TRM-201 in the PILOT portion and the MAIN study, and a single 25-mg dose of TRM-201 twice in the FOOD-EFFECT sub study. TRM-201 manufactured and formulated as Batch 5 (B18090) and Batch 6 (B18091), above, will be used in the study.
The time points and windows for PK blood sampling for the PILOT portion, Main study and FOOD-EFFECT substudy are presented in Table 14 below. For each sample, approximately 3 mL of blood will be drawn. The samples may be obtained by a straight stick or via an in-dwelling intravenous (IV) catheter in a forearm vein. Additional details for the collection, processing, storage, and shipping of PK samples will be provided in the study manual.
Pharmacokinetic samples will be analyzed using a validated assay for rofecoxib in human plasma. Assay results and validation details will be provided in a separate bioanalytical report.
The following PK parameters for rofecoxib will be calculated as primary endpoints using standard noncompartmental methods for both the PILOT portion and MAIN study, and the FOOD-EFFECT sub study: AUC0-∞ and Cmax. Secondary endpoints include Tmax, and t1/2. Additional PK parameters (e.g., CL/F, and Vd/F) will also be calculated using standard noncompartmental methods.
The PK parameters of rofecoxib will be analyzed based on the actual sampling times. All parameters will be calculated using the Phoenix® WinNonlin® version 6.4 or higher (Certara USA Inc., Princeton, N.J.) or SAS® version 9.3 or higher (SAS Institute Inc., Cary, N.C.). […]

[1] = 25 mg, versus Schwartz data, FIG. 28

CS(=O)(=O)c1ccc(C2=C(c3ccccc3)C(=O)OC2)cc1 [TRM-201, 4-[4-(methylsulfonyl)phenyl]-3-phenyl-2(5H)-furanone]
AUC0-∞ compared to historical data [1]: larger
Cmax compared to historical data [1]: higher
Cmax (17.5 mg, 17.5 mg formulation, estimated from 101 data, read-out: estimated Cmax): ~238 ng/mL
AUC(0-inf) (17.5 mg, extrapolated from 25 mg assuming dose linearity, read-out: extrapolated AUC0-∞): 3250 ng·h/mL
Cmax (17.5 mg, extrapolated from 25 mg assuming dose linearity, read-out: extrapolated Cmax): 223 ng/mL
Cmax (20 mg, 20 mg formulation, estimated from 101 data, read-out: estimated Cmax): ~266 ng/mL
AUC(0-inf) (20 mg, extrapolated from 25 mg assuming dose linearity, read-out: extrapolated AUC0-∞): 3710 ng·h/mL
Cmax (20 mg, extrapolated from 25 mg assuming dose linearity, read-out: extrapolated Cmax): 254 ng/mL
Cmax (25 mg, 25 mg formulation in TRM-201-PK-101, as stated in Example 6, read-out: Geometric mean Cmax): 320 ng/mL
AUC(0-inf) (25 mg, fasted, FIG. 25, read-out: geometric mean AUC0-∞): 4640 ng·h/mL
Cmax (25 mg, fasted, FIG. 25, read-out: geometric mean Cmax): 318 ng/mL
AUC (17.5 mg formulation, estimated from 101 data, read-out: estimated AUC): ~3280 ng·h/mL
AUC (20 mg formulation, estimated from 101 data, read-out: estimated AUC): ~3740 ng·h/mL
AUC (25 mg formulation in TRM-201-PK-101, as stated in Example 6, read-out: Geometric mean AUC): 4680 ng·h/mL
